Reference: US20210308034A1, “PREBIOTIC COMPOSITIONS AND METHODS FOR MAINTAINING A HEALTHY SKIN MICROBIOTA” (KIMBERLY-CLARK WORLDWIDE, INC., priority 2018, published 2021)

Key:
Format in all cases: cell-based
[1] = system: Micrococcus luteus (ATCC 49732); assay: Carbohydrate Screening Test Method (Biolog phenotype microarray), Bacteria Code D; conditions: Commensal; carbon microarray plate, OD 600 nm, 36 hr, 33° C.; positive = more than 0.05 OD units above zero; blank cell = not utilized
Description: (§1) After creating desired ratios of various commensal skin bacteria in a healthy skin microbiome, 188 different carbohydrate sources were screened as the next step in determining potential prospects for skin microbiota balancing agents. The screening process was set up to determine which carbohydrate sources promoted commensal and/or pathogenic bacteria as well as to obtain individual and combinations of carbohydrate sources that could serve as microbiota balancing agents that can support or maintain the healthy proportions of commensal skin bacteria of Corynebacterium, Staphylococcus, and Micrococcus. The screening was conducted utilizing Biolog phenotype microarray plates (Hayward, Calif.). Table 1 provides a coded list of the commensal and pathogenic skin bacteria that the carbohydrates were screened against.
(§2) Table 2 provides the results of screening various carbohydrate sources against the commensal and pathogenic bacteria codes listed in Table 1. The Bacteria Codes B, D, E, I, and J are commensal bacteria and are shaded in Table 2 for references purposes. The bacteria codes were each placed in a carbon microarray plate and screened through the Carbohydrate Screening Test Method, as described in the Test Methods section herein. If a particular bacteria code utilized a specific carbohydrate source as described in the Carbohydrate Screening Test Method, then the corresponding cell in Table 2 was marked with a Y (short for “Yes”). […] Many of the carbohydrate sources were utilized by both commensal and pathogenic bacteria, and as such, would not provide an advantage for selective growth of the commensal bacteria. However, some of the carbohydrate sources were only used by commensal bacteria and were identified for further testing as described herein.
(§3) The study employed 10 representative skin bacteria; Staphylococcus epidermidis ATCC 14990, Staphylococcus epidermidis M23864:W2, Staphylococcus aureus ATCC 6538, Staphylococcus aureus ATCC 25904 (Newman), Pseudomonas aeruginosa ATCC 9027, Micrococcus luteus ATCC […], Micrococcus luteus SK58, Klebsiella pneumoniae ATCC BAA-2146, Corynebacterium amycolatum SK46, and Corynebacterium minutissimum ATCC 23348. Cultures were started from freezer bead stocks by placing a single bead into 20 mL of tryptic soy broth (TSB) for all organisms except C. amycolatum SK46 and C. minutissimum ATCC 23348, which were placed into brain heart infusion (BHI) broth. Cultures were grown for about 24 hr at 37° C. except M. luteus ATCC 49732 and M. luteus SK58, which were grown at 30° C. A passage of the culture was made using a sterile swab and streaked onto two M9*2 agar plates to prepare the incubated culture for the phenotype microarray pate according to Table 4. Plates were incubated for about 24 hr at 37° C. except for M. luteus ATCC 49732 and M. luteus SK58, which were incubated at 30° C. for 24 hr.
(§4) All cultures were harvested and washed before inoculation into the carbon microarray plate (BiOLOG, Hayward Calif.), with Biolog Plates PM1 and PM2 each having a source definition of Carbon. The bacteria on the M9*2 agar was suspended via agitation with an inoculating loop in 1 mL of M9*1 media for collection in a 1.7 mL micro centrifuge tube, as noted in Table 4. The bacteria was suspended again in M9*1 media, agitated, and collected into the same 1.7 mL microcentrifuge tube used in the previous step. The tube was centrifuged for 5 minutes at 4,000×G, supernatant decanted, the pellet was resuspended in 1 mL of M9*1 media, and vortex. This washing process was repeated for a total of 4 times.
(§5) A tenfold dilution in M9*1 media was performed using 1 mL of the washed bacterial culture. Of the tenfold dilution 200 μL was placed in an untreated 96-well plate (Falcon, Pasadena Tx.) for an initial optical density (OD) reading at a wavelength of 600 nm. The OD was used to correlate to colony forming units (CFU) per milliliter by using linear regression lines for each organism. […]

[2] = system: Corynebacterium jeikum (ATCC 33033); assay: Carbohydrate Screening Test Method (Biolog phenotype microarray), Bacteria Code B; conditions: Commensal; carbon microarray plate, OD 600 nm, 36 hr, 33° C.; positive = more than 0.05 OD units above zero; blank cell = not utilized
Procedure, shortened: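 Strain from M9*2 agar was suspended in M9*1 medium, washed and inoculated into Biolog PM1/PM2 carbon plates. Carbohydrate use was scored yes/no, and growth rate and maximum yield were derived with GrowthRates 2.1, with max yields used for commensal ratios.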

[3] = system: Staphylococcus epidermidis (M23864:W2); assay: Carbohydrate Screening Test Method (Biolog phenotype microarray), Bacteria Code J; conditions: Commensal; carbon microarray plate, OD 600 nm, 36 hr, 33° C.; positive = more than 0.05 OD units above zero; blank cell = not utilized
[4] = system: Staphylococcus epidermidis (ATCC 14990); assay: Carbohydrate Screening Test Method (Biolog phenotype microarray), Bacteria Code I; conditions: Commensal; carbon microarray plate, OD 600 nm, 36 hr, 33° C.; positive = more than 0.05 OD units above zero; blank cell = not utilized
Description: as §1, §2, §3, §4, §5

[5] = system: Klebsiella pneumoniae (ATCC BAA-2146); conditions: Pathogenic; carbon microarray plate, OD 600 nm, 36 hr, 33° C.; positive = more than 0.05 OD units above zero; blank cell = not utilized
[6] = system: Micrococcus luteus (SK58); assay: Carbohydrate Screening Test Method (Biolog phenotype microarray), Bacteria Code E; conditions: Commensal; carbon microarray plate, OD 600 nm, 36 hr, 33° C.; positive = more than 0.05 OD units above zero; blank cell = not utilized
Procedure, shortened: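 Each commensal strain grown in Biolog carbon phenotype microarray plates with single carbohydrate sources. Growth curves fitted with GrowthRates 2.1 to give growth rate and maximum yield. Max yields used to calculate predicted co-culture ratios between Corynebacterium, Staphylococcus and Micrococcus, compared with desired ratios of 1.3, 1.4 and 1.1.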

[7] = system: Pseudomonas aeruginosa (ATCC 9027); conditions: Pathogenic; carbon microarray plate, OD 600 nm, 36 hr, 33° C.; positive = more than 0.05 OD units above zero; blank cell = not utilized
Procedure, shortened: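 Carbon-source utilisation screen on Biolog PM1/PM2 plates: strain grown in TSB then on M9*2 agar, each ~24 h at 37 °C, washed four times in M9*1 and diluted tenfold. OD600 correlated to CFU/mL; each carbohydrate scored Yes when utilised.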

## CC(=O)N[C@H]1C(O)O[C@H](CO)[C@H](O)[C@@H]1O (stereo partly drawn) [N-Acetyl-D-Galactosamine]
[1]
  Carbohydrate Screening Results, Bacteria Code D: Y

## COC(=O)C(C)=O [Methyl Pyruvate]
[2]
  Carbohydrate Screening Results, Bacteria Code B: Y
[3]
  Carbohydrate Screening Results, Bacteria Code J: Y
[4]
  Carbohydrate Screening Results, Bacteria Code I: Y

## OC[C@@H](O)[C@@H](O[C@@H]1O[C@H](CO)[C@H](O)[C@H](O)[C@H]1O)[C@H](O)[C@@H](O)CO [Lactitol]
[5]
  Carbohydrate Screening Results, Bacteria Code C: Y
[3]
  Carbohydrate Screening Results, Bacteria Code J: Y
[4]
  Carbohydrate Screening Results, Bacteria Code I: Y

## O=C(O)C(=O)C(C(=O)O)C(O)C(=O)O (stereo not shown) [Oxalomalic Acid]
[1]
  Carbohydrate Screening Results, Bacteria Code D: Y
[3]
  Carbohydrate Screening Results, Bacteria Code J: Y

## O=C[C@H](O)[C@@H](O)[C@@H](O)[C@H](O)C(=O)O [D-Galacturonic Acid]
[6]
  Carbohydrate Screening Results, Bacteria Code E: Y
[2]
  Carbohydrate Screening Results, Bacteria Code B: Y
[1]
  Carbohydrate Screening Results, Bacteria Code D: Y

## O=c1ccn([C@@H]2O[C@H](CO)[C@@H](O)[C@H]2O)c(=O)[nH]1 [Uridine]
[2]
  Carbohydrate Screening Results, Bacteria Code B: Y
[5]
  Carbohydrate Screening Results, Bacteria Code C: Y
[1]
  Carbohydrate Screening Results, Bacteria Code D: Y

## O=C1O[C@H](CO)[C@@H](O)[C@H]1O [D-Ribono-1,4-Lactone]
[1]
  Carbohydrate Screening Results, Bacteria Code D: Y

## O=C(O)CC(=O)O [Malonic Acid]
[7]
  Carbohydrate Screening Results, Bacteria Code F: Y
[5]
  Carbohydrate Screening Results, Bacteria Code C: Y
[1]
  Carbohydrate Screening Results, Bacteria Code D: Y

## OC[C@H]1O[C@@H](O[C@@H]2[C@@H](CO)OC(O)(CO)[C@H]2O)[C@H](O)[C@@H](O)[C@H]1O (mixture of isomers) [Lactulose]
[6]
  Carbohydrate Screening Results, Bacteria Code E: Y
[2]
  Carbohydrate Screening Results, Bacteria Code B: Y
[3]
  Carbohydrate Screening Results, Bacteria Code J: Y
[4]
  Carbohydrate Screening Results, Bacteria Code I: Y

## C[C@H](N)C(N)=O [L-Alaninamide]
[1]
  Carbohydrate Screening Results, Bacteria Code D: Y
[3]
  Carbohydrate Screening Results, Bacteria Code J: Y

## N#C[C@H](O[C@@H]1O[C@H](CO[C@@H]2O[C@H](CO)[C@@H](O)[C@H](O)[C@H]2O)[C@@H](O)[C@H](O)[C@H]1O)c1ccccc1 [Amygdalin]
[1]
  Carbohydrate Screening Results, Bacteria Code D: Y
[3]
  Carbohydrate Screening Results, Bacteria Code J: Y

## CC(C)C[C@H](N)C(=O)O [L-Leucine]
[1]
  Carbohydrate Screening Results, Bacteria Code D: Y

## Chondroitin Sulfate C
[1]
  Carbohydrate Screening Results, Bacteria Code D: Y

## Gelatin
[1]
  Carbohydrate Screening Results, Bacteria Code D: Y
[3]
  Carbohydrate Screening Results, Bacteria Code J: Y

## NC(=O)CCC(=O)O [Succinamic Acid]
[1]
  Carbohydrate Screening Results, Bacteria Code D: Y
[4]
  Carbohydrate Screening Results, Bacteria Code I: Y

## OCc1ccccc1O[C@@H]1O[C@H](CO)[C@@H](O)[C@H](O)[C@H]1O [Salicin]
[7]
  Carbohydrate Screening Results, Bacteria Code F: Y
[5]
  Carbohydrate Screening Results, Bacteria Code C: Y
[1]
  Carbohydrate Screening Results, Bacteria Code D: Y

## CC(=O)N[C@@H](CCC(=O)O)C(=O)O [N-Acetyl-L-Glutamic Acid]
[7]
  Carbohydrate Screening Results, Bacteria Code F: Y
[1]
  Carbohydrate Screening Results, Bacteria Code D: Y

## OC[C@H]1O[C@@H](O[C@H]2[C@H](O)[C@@H](O)[C@@H](O)O[C@@H]2CO)[C@H](O)[C@@H](O)[C@H]1O [α-D-Lactose]
[6]
  Carbohydrate Screening Results, Bacteria Code E: Y
[2]
  Carbohydrate Screening Results, Bacteria Code B: Y
[3]
  Carbohydrate Screening Results, Bacteria Code J: Y
[4]
  Carbohydrate Screening Results, Bacteria Code I: Y

## O=C(O)CC(O)C(=O)O (racemic) [D,L-Malic Acid]
[6]
  Carbohydrate Screening Results, Bacteria Code E: Y
[2]
  Carbohydrate Screening Results, Bacteria Code B: Y
[3]
  Carbohydrate Screening Results, Bacteria Code J: Y
[4]
  Carbohydrate Screening Results, Bacteria Code I: Y

## O=C(CO)[C@@H](O)[C@H](O)[C@@H](O)CO [L-Sorbose]
[7]
  Carbohydrate Screening Results, Bacteria Code F: Y
[5]
  Carbohydrate Screening Results, Bacteria Code C: Y
[1]
  Carbohydrate Screening Results, Bacteria Code D: Y

## OC[C@H]1O[C@H](OC[C@H]2OC(O)(CO)[C@@H](O)[C@@H]2O)[C@H](O)[C@@H](O)[C@@H]1O (stereo partly shown) [Palatinose]
[7]
  Carbohydrate Screening Results, Bacteria Code F: Y
[5]
  Carbohydrate Screening Results, Bacteria Code C: Y
[3]
  Carbohydrate Screening Results, Bacteria Code J: Y
[4]
  Carbohydrate Screening Results, Bacteria Code I: Y

## NCCO [2-Aminoethanol]
[6]
  Carbohydrate Screening Results, Bacteria Code E: Y
[2]
  Carbohydrate Screening Results, Bacteria Code B: Y
[1]
  Carbohydrate Screening Results, Bacteria Code D: Y

## O=C(O)c1ccc(O)cc1 [4-Hydroxy Benzoic Acid]
[1]
  Carbohydrate Screening Results, Bacteria Code D: Y

## NCCCCN [Putrescine]
[5]
  Carbohydrate Screening Results, Bacteria Code C: Y
[3]
  Carbohydrate Screening Results, Bacteria Code J: Y
[4]
  Carbohydrate Screening Results, Bacteria Code I: Y

## OC[C@H]1O[C@@](CO)(O[C@H]2O[C@H](CO)[C@@H](O)[C@H](O)[C@H]2O)[C@@H](O[C@H]2O[C@H](CO)[C@@H](O)[C@H](O)[C@H]2O)[C@@H]1O [D-Melezitose]
[1]
  Carbohydrate Screening Results, Bacteria Code D: Y
[4]
  Carbohydrate Screening Results, Bacteria Code I: Y

## COC1OC(CO)C(O)C(O)C1O [α-Methyl-D-Mannoside]
[1]
  Carbohydrate Screening Results, Bacteria Code D: Y

## OC[C@H]1O[C@H](OC[C@H]2O[C@H](OC[C@H]3O[C@H](O[C@]4(CO)O[C@H](CO)[C@@H](O)[C@@H]4O)[C@H](O)[C@@H](O)[C@@H]3O)[C@H](O)[C@@H](O)[C@H]2O)[C@H](O)[C@@H](O)[C@H]1O [Stachyose]
[7]
  Carbohydrate Screening Results, Bacteria Code F: Y
[5]
  Carbohydrate Screening Results, Bacteria Code C: Y
[1]
  Carbohydrate Screening Results, Bacteria Code D: Y

## N[C@@H](CO)C(=O)O [L-Serine]
[6]
  Carbohydrate Screening Results, Bacteria Code E: Y
[2]
  Carbohydrate Screening Results, Bacteria Code B: Y
[3]
  Carbohydrate Screening Results, Bacteria Code J: Y
[4]
  Carbohydrate Screening Results, Bacteria Code I: Y

## O=C[C@@H](O)[C@H](O)[C@H](O)CO [D-Arabinose]
[1]
  Carbohydrate Screening Results, Bacteria Code D: Y

## N=C(N)NCCC[C@H](N)C(=O)O [L-Arginine]
[7]
  Carbohydrate Screening Results, Bacteria Code F: Y
[1]
  Carbohydrate Screening Results, Bacteria Code D: Y
